We go through two compounds from patent US11324724B2, “N-(2,2-difluoroethyl)-N-[(pyrimidinylamino)propanyl]arylcarboxamides” (Boehringer Ingelheim International GmbH, priority 2017, dated 2022).

The test system of one data set is human MDR1 P-gp. The data set is described as follows: Assay D: efflux in MDCK cells transfected with the human MDR1 gene. Type of data set: in vitro ADME, canine. The note with it: dog; MDCK-MDR1, pH 7.4, 37° C.; read-out: Assay D: MDCK efflux ratio (BA/AB). The protocol: The MDCK assay provides information on the potential of a compound to pass the blood brain barrier. Permeability measurements across polarized, confluent MDCK-MDR1 cell monolayers grown on permeable filter supports are used as an in vitro absorption model: apparent permeability coefficients (PE) of the compounds across the MDCK-MDR1 cell monolayers are measured (pH 7.4, 37° C.) in apical-to-basal (AB) and basal-to-apical (BA) transport direction.
The AB permeability (PEAB) represents drug absorption from the blood into the brain and the BA permeability (PEBA) drug efflux from the brain back into the blood via both, passive permeability as well as active transport mechanisms mediated by efflux and uptake transporters that are expressed on the MDCK-MDR1 cells, predominantly by the overexpressed human MDR1 P-gp. Identical or similar permeabilities in both transport directions indicate passive permeation, vectorial permeability points to additional active transport mechanisms. Higher PEBA than PEAB (PEBA/PEAB>5) indicates the involvement of active efflux mediated by MDR1 P-gp, which might compromises the goal to achieve sufficient brain exposure. Therefore this assay provides valuable support for selection of compounds applicable for further in vivo testing. High permeability not limited by efflux at the blood brain barrier is a favourable characteristic for compounds that are to be used for drugs acting primarily in the CNS
D. Assessment of Efflux in Madin-Darby Canine Kidney (MDCK) Cells Transfected with the Human MDR1 Gene
Apparent permeability coefficients (PE) of the compounds across the MDCK-MDR1 cell monolayers are measured (pH 7.4, 37° C.) in apical-to-basal (AB) and basal-to-apical (BA) transport direction. AB permeability (PEAB) represents drug absorption from the blood into the brain and BA permeability (PEBA) drug efflux from the brain back into the blood via both passive permeability as well as active transport mechanisms mediated by efflux and uptake transporters that are expressed on the MDCK-MDR1 cells, predominantly by the overexpressed human MDR1 P-gp. The compounds are assigned to permeability/absorption classes by comparison of the AB permeabilities with the AB permeabilities of reference compounds with known in vitro permeability and oral absorption in the human. Identical or similar permeabilities in both transport directions indicate passive permeation, vectorial permeability points to additional active transport mechanisms. Higher PEBA than PEAB indicates the involvement of active efflux mediated by MDR1 P-gp. Active transport is concentration-dependently saturable.
MDCK-MDR1 cells (1-2×10 e5 cells/1 cm2 area) are seeded on filter inserts (Costar transwell polycarbonate or PET filters, 0.4 μm pore size) and cultured (DMEM) for 7 days. Subsequently, the MDR1 expression is boosted by culturing the cells with 5 mM sodium butyrate in full medium for 2 days. Compounds are dissolved in appropriate solvent (like DMSO, 1-20 mM stock solutions). Stock solutions are diluted with HTP-4 buffer (128.13 mM NaCl, 5.36 mM KCl, 1 mM MgSO4, 1.8 mM CaCl2, 4.17 mM NaHCO3, 1.19 mM Na2HPO4×7H2O, 0.41 mM NaH2PO4×H2O, 15 mM HEPES, 20 mM glucose, 0.25% BSA, pH 7.4) to prepare the transport solutions (0.1-300 μM compound, final DMSO<=0.5%). The transport solution (TL) is applied to the apical or basolateral donor side for measuring A-B or B-A permeability (3 filter replicates), respectively. The receiver side contains the same buffer as the donor side. Samples are collected at the start and end of experiment from the donor and at various time intervals for up to 2 hours also from the receiver side for concentration measurement by HPLC-MS/MS or scintillation counting. Sampled receiver volumes are replaced with fresh receiver solution.

The nature of data set [1]: Assay C: metabolic stability in human liver microsomes (Human MST). Type of data set: in vitro ADME. Particulars: pH 7.6, pooled human liver microsomes, 37° C., read-out: Assay C: Human MST t1/2. The protocol: C. Assessment of Metabolic Stability in Human Liver Microsomes (Human MST)
The metabolic stability of the compounds according to the invention may be investigated as follows:
The metabolic degradation of the test compound is assayed at 37° C. with pooled human liver microsomes. The final incubation volume of 100 μL per time point contains TRIS buffer pH 7.6 at room temperature (0.1 M), MgCl2 (5 mM), microsomal protein (1 mg/mL) and the test compound at a final concentration of 1 μM. Following a short pre-incubation period at 37° C., the reactions are initiated by addition of beta-nicotinamide adenine dinucleotide phosphate, reduced form (NADPH, 1 mM), and terminated by transferring an aliquot into solvent after different time points. After centrifugation (10000 g, 5 min), an aliquot of the supernatant is assayed by LC-MS/MS for the amount of parent compound. The half-life (t1/2) is determined by the slope of the semi-logarithmic plot of the concentration-time profile.
On the technique in general: Liver microsomes are a subcellular fraction often used to study metabolism.

The target of a further data set is T1, OX2R (Homo sapiens, UniProt O43614).
T1 sequence (O43614 1-444): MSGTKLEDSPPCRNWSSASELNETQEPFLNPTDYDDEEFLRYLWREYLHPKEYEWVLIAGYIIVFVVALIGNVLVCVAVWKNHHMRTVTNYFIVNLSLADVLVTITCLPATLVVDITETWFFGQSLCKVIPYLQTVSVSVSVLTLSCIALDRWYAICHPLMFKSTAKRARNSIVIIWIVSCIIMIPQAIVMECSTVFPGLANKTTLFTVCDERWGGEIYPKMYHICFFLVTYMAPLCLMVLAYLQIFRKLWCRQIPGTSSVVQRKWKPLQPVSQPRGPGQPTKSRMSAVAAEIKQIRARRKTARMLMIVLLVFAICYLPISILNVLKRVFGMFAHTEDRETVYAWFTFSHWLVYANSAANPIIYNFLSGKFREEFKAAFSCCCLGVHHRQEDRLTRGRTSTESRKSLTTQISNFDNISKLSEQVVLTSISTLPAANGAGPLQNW
The note with it: cited from earlier work.

As to `CC[C@@H](CNc1ncc(C(F)(F)F)cn1)N(C)C(=O)c1nc(C)ccc1-c1ncccn1` [Ex 84 in WO2016/ 034882, reference compound], in the data set on human MDR1 P-gp, the efflux ratio was below 3.

Usually IC50 stands for the midpoint of a concentration-inhibition curve. Consider `CC[C@@H](CNc1ncc(C(F)(F)F)cn1)N(C)C(=O)c1c(F)cccc1-n1nccn1` [Ex 91 in WO2016/ 034882], for which, in data set [1], the half-life at 1 μM is above 2.17 h. Also, in the data set with human MDR1 P-gp, the efflux ratio was below 3. Moreover, on OX2R (as described in WO2016/034882, Table 3), the “OX2R pIC50” value was below 5.1. Besides, the IC50 on OX2R (corresponds to pIC50 of WO2016/034882, Table 3) was at least 7.95 µM.
